In US11447486B2, “2-amino-benzimidazole derivatives and their use as 5-lipoxygenase and/or prostaglandin E synthase inhibitors” (INSTITUT PASTEUR KOREA, priority 2014, dated 2022):
pEC50, pIC50: −log10 of the molar value.

How the values were obtained:
human 5-LOX = target: T1, human 5-LOX (Homo sapiens, UniProt P09917); assay: 5-LOX enzyme activity, fluorescence method (5-HPETE, H2DCFDA); assay type: biochemical; details: read-out: 5-LO (IC50)
T1 construct: purchased Cayman 60402; host or cells: insect cells (lysate)
T1 sequence (P09917 1-674): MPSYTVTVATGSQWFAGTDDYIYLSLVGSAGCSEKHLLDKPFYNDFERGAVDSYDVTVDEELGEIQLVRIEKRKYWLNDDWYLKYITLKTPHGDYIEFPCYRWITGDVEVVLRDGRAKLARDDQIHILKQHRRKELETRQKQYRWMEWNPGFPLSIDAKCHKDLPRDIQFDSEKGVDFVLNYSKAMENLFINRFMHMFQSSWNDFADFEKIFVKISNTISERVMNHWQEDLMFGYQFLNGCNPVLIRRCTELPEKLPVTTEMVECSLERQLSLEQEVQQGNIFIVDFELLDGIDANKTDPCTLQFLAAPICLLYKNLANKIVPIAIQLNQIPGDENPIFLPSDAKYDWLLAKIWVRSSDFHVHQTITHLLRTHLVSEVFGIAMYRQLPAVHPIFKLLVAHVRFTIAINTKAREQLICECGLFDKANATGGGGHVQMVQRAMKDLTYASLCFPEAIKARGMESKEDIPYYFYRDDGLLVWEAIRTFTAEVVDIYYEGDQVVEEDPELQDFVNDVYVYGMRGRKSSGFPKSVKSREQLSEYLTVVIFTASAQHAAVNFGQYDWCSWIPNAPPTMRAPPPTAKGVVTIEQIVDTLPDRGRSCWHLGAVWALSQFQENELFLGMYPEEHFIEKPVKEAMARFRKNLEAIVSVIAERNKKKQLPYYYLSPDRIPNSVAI
How it was run: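 Compound (0.5 nM to 10 uM) pre-incubated 5 min with enzyme; reaction started with ATP (100 uM final) and arachidonic acid (3 uM final). All steps at room temperature, fluorescence read-out.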

Rat whole blood (RWB) = assay: LTB4 secretion assay in RWB (rat whole blood); assay type: cell-based; details: Rattus norvegicus
Procedure: Rat blood was drawn from caudal vena cava from male Sprague Dawley rat (6-9 weeks old) in vacuette coated with sodium heparin (Greiner bio-one, Cat #455051). The blood was pooled and diluted with RPMI (WelGENE, Cat #LM 011-05) to 1:1. The diluted blood was aliquoted into 96 well plate (200 ul per well) and compounds were added in dose response to a desired concentration ranging from 2.5 nM to 50 uM. After 15 min of pre-incubation at 37° C., calcium ionophore (A23187) was added to the final concentration of 10 uM. After 10 min of further incubation at 37° C., the LTB4 production was stopped by diluting the reaction mixture with ice cold PBS (1:4 dilutions). Cells were removed by centrifugation at 1000×g, 4° C. for 10 min, and the supernatant was transferred and then the quantification of LTB4 was done with Leukotriene B4 EIA kit (Cayman, Cat #520111) as instructed.

[1] = test system: Rat basophilic leukemia (RBL) cells; assay: LTB4 secretion assay in RBL (rat basophilic leukemia cells); assay type: cell-based; details: Rattus norvegicus, RBL
How it was run: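 Cells seeded 2×10^4/well the day before, then pre-incubated 15 min at 37 °C in EMEM/0.5% FBS with compound (5 nM to 100 uM). Stimulation with 2.5 uM arachidonic acid plus 5 uM A23187 (final) for 10 min at 37 °C; LTB4 in supernatant quantified by EIA.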

Row | SMILES | pIC50 (human 5-LOX) | pEC50 (Rat whole blood (RWB)) | pEC50 [1]
1 | CCC(Nc1nc2ccc(Nc3cc(C(F)(F)F)n(C)n3)cc2n1C)c1ccc(Oc2ncc(Cl)cn2)cc1 (stereo not drawn) [Compound 505] | > 6.00 | > 5.00 | > 5.00
2 | CCn1c(NCc2ccc(Oc3ncc(Cl)cn3)cc2)nc2ccc(Nc3n[nH]c(C)c3Cl)cc21 [Compound 512] | > 6.00 | > 5.00 | > 5.00
3 | CC(C)(C)Nc1nc2ccc(N)cc2n1CC(=O)Nc1ccc(OC(F)(F)F)cc1 [Compound 67] | > 6.00 | < 4.70 | > 5.00
4 | CCC(Nc1ccc2[nH]c(N(C)C)nc2c1)c1ccc(Oc2ccc(Cl)cc2)cc1 (stereo not drawn) [Compound 128] | > 6.00 | < 4.70 | > 5.00
5 | CCn1c(NCc2ccc(Oc3ncc(C(F)(F)F)cn3)cc2)nc2ccc(Nc3cc(C)[nH]n3)cc21 [Compound 531] | > 6.00 | > 5.00 | > 5.00
6 | CCn1c(NCc2ccc(Oc3ncc(C(F)(F)F)cn3)cc2)nc2ccc(Nc3n[nH]c(C)c3Cl)cc21 [Compound 508] | 5.00 to 6.00 | > 5.00 | > 5.00
7 | Cn1c(NCc2ccc(Oc3ccc(C#N)cn3)cc2)nc2ccc(N)cc21 [Compound 350] | > 6.00 | > 5.00 | > 5.00
8 | Cn1c(NCc2ccc(Oc3ccc(Cl)nc3)cc2)nc2ccc(NC3COC3)cc21 [Compound 281] | > 6.00 | > 5.00 | > 5.00
9 | Cc1cc(Nc2ccc3nc(NCc4ccc(Oc5ncc(C(F)(F)F)cn5)cc4)n(C)c3c2)n[nH]1 [Compound 479] | > 6.00 | > 5.00 | > 5.00
10 | Cc1ccc(Oc2ccc(CNc3nc4ccc(N)cc4n3C)cc2)nn1 [Compound 311] | > 6.00 | > 5.00 | < 4.70
11 | Nc1ccc2[nH]c(NCc3cccc(Oc4ccc(Cl)cc4)c3)nc2c1 [Compound 101] | > 6.00 | > 5.00 | > 5.00
12 | Cn1c(NCc2ccc(Oc3ccc(Cl)cn3)cc2)nc2ccc(Nc3ccccn3)cc21 [Compound 448] | 5.00 to 6.00 | > 5.00 | > 5.00
13 | Cc1[nH]nc(Nc2ccc3nc(NCc4ccc(Oc5ncc(Cl)cn5)cc4)n(C)c3c2)c1C [Compound 474] | > 6.00 | > 5.00 | > 5.00
14 | Cn1c(NCc2ccc(Oc3ccc(Cl)cn3)nc2)nc2ccc(NC3COC3)cc21 [Compound 309] | > 6.00 | < 4.70 | < 4.70
15 | Cn1c(NCc2ccc(Oc3ccc(Cl)cn3)c(F)c2)nc2ccc(NC3COC3)cc21 [Compound 268] | > 6.00 | > 5.00 | > 5.00
16 | Cn1c(NCc2ccc(Nc3ncc(Cl)cn3)cc2)nc2ccc(NC3COC3)cc21 [Compound 461] | > 6.00 | > 5.00 | > 5.00
17 | CNc1nc2ccc(N3CCC(Oc4ccc(OC(F)(F)F)cc4)C3)cc2[nH]1 (stereo not drawn) [Compound 104] | > 6.00 | < 4.70 | > 5.00
18 | Cn1c(NCc2ccc(Oc3ccc(Cl)cc3)nc2)nc2ccc(NC3COC3)cc21 [Compound 307] | > 6.00 | < 4.70 | 4.70 to 5.00
19 | Nc1ccc2nc(NCc3coc(-c4ccc(Cl)cc4)n3)[nH]c2c1 [Compound 175] | > 6.00 | < 4.70 | > 5.00
20 | Cn1c(NCc2ccc(Oc3ccc(C#N)cn3)cc2)nc2ccc(NC3COC3)cc21 [Compound 351] | > 6.00 | > 5.00 | 4.70 to 5.00
21 | Cn1c(NCCOc2ccc(OC(F)(F)F)cc2)nc2ccc(N)cc21 [Compound 52] | > 6.00 | > 5.00 | > 5.00

Row | SMILES | pIC50 (human 5-LOX) | pEC50 (Rat whole blood (RWB)) | pEC50 [1]
22 | COc1c(NC(C)c2ccc(Oc3ccc(OC(F)(F)F)cc3)cc2)ccc2[nH]c(N(C)C)nc12 (stereo not drawn) [Compound 191] | > 6.00 | < 4.70 | > 5.00
23 | Cc1csc(Nc2ccc3nc(NCc4ccc(Oc5ncc(Cl)cn5)cc4)n(C)c3c2)n1 [Compound 501] | > 6.00 | > 5.00 | > 5.00
24 | Cn1c(NCc2ccc(Oc3ncc(Cl)cn3)cc2)nc2ccc(Nc3cc(C(F)(F)F)[nH]n3)cc21 [Compound 475] | > 6.00 | > 5.00 | > 5.00
25 | Cc1[nH]nc(Nc2ccc3nc(NCc4ccc(Oc5ccc(Cl)cn5)cc4)n(C)c3c2)c1Cl [Compound 518] | < 5.00 | > 5.00 | > 5.00
26 | Nc1ccc2nc(NCc3ccc(Oc4ncccn4)cc3)[nH]c2c1 [Compound 154] | > 6.00 | < 4.70 | < 4.70
27 | Nc1ccc2nc(N)n(Cc3ccc(Oc4ccc(Cl)cc4)cn3)c2c1 [Compound 239] | > 6.00 | > 5.00 | > 5.00
28 | Cc1cc(Nc2ccc3nc(NCc4ccc(Oc5ccc(OC(F)(F)F)cn5)cc4)n(C)c3c2)n[nH]1 [Compound 496] | > 6.00 | > 5.00 | > 5.00
29 | Cc1cc(Nc2ccc3nc(NCc4ccc(Oc5ncc(Cl)cn5)c(Cl)c4)n(C)c3c2)n[nH]1 [Compound 473] | > 6.00 | > 5.00 | > 5.00
30 | Cn1c(NCc2ccc(Oc3ccc(C(F)(F)F)cn3)cc2)nc2c(F)cc(NC3COC3)cc21 [Compound 552] | > 6.00 | 4.70 to 5.00 | > 5.00
31 | COCCn1c(NCc2ccc(Oc3ccc(Cl)cn3)cc2)nc2ccc(NC3COC3)cc21 [Compound 269] | > 6.00 | > 5.00 | > 5.00
32 | c1ccc(Oc2ccc(CNc3nc4cc(NC5COC5)ccc4[nH]3)cc2)cc1 [Compound 87] | > 6.00 | > 5.00 | > 5.00
33 | Cn1c(NCc2ccc(Oc3ncc(C(F)(F)F)cn3)cc2)nc2ccc(NC3COC3)cc21 [Compound 374] | > 6.00 | > 5.00 | > 5.00
34 | CCC(Nc1nc2ccc(Nc3cc(C)[nH]n3)cc2n1C)c1ccc(Oc2ncc(Cl)cn2)cc1F (stereo not drawn) [Compound 537] | > 6.00 | > 5.00 | > 5.00
35 | Cn1c(NCc2ccc(Oc3ncc(Cl)cn3)cc2)nc2ccc(NC(C)(C)C(N)=O)cc21 [Compound 358] | > 6.00 | > 5.00 | > 5.00
36 | CN(C)c1nc2cc(N3CCC(Oc4ccncc4)C3)ccc2[nH]1 (stereo not drawn) [Compound 202] | > 6.00 | < 4.70 | > 5.00
37 | CCC(Nc1nc2ccc(NC3COC3)cc2n1C)c1ccc(Oc2ccc(Cl)cn2)cc1 (stereo not drawn) [Compound 275] | > 6.00 | > 5.00 | > 5.00
38 | CC(Nc1nc2ccc(NC3COC3)cc2n1C)c1ccc(Oc2ccc(Cl)cn2)cc1 (stereo not drawn) [Compound 256] | > 6.00 | > 5.00 | 4.70 to 5.00
39 | CCC(Nc1nc2ccc(Nc3cc(C(F)(F)F)n(C)n3)cc2n1C)c1ccc(Oc2cnc(Cl)cn2)cc1 (stereo not drawn) [Compound 517] | 5.00 to 6.00 | > 5.00 | > 5.00
40 | Cc1cc(Nc2ccc3nc(NCc4ccc(Oc5nccc(Cl)n5)cc4)n(C)c3c2)n[nH]1 [Compound 489] | > 6.00 | > 5.00 | > 5.00
41 | Nc1ccc2[nH]c(NCc3ccc(N4CCC(c5ccc(OC(F)(F)F)cc5)CC4)cc3)nc2c1 [Compound 108] | > 6.00 | < 4.70 | < 4.70
